Tested on: S. pneumoniae (Serotype 3; ATCC 6303)
Experiment: S. pneumoniae mouse pneumonia model, nebulized salt formulations
Assay type: in vivo, C57BL/6 mice
Conditions: nebulized 2 h before infection; ~0.72 mg Ca/kg, ampicillin ~3 mg/kg

In the case of `CC1(C)S[C@@H]2[C@H](NC(=O)[C@H](N)c3ccccc3)C(=O)N2[C@H]1C(=O)O` [ampicillin], the “reduction of bacterial titers in lungs relative to saline control” value was 33 fold.

Source: US20130164338A1 (priority 2010, published 2013)
